Literature values as cited in patent US6949636B2, “Intron/exon structure of the human and mouse β3-adrenergic receptor genes” (Centre National de la Recherche Scientifique, priority 1989, dated 2005).

How the values were obtained:
β3-adrenergic receptor = β3-adrenergic receptor (Homo sapiens, UniProt P13945); conditions: activity increases in the order salbutamol, BRL 28410, BRL 37344, (1)-isoproterenol; from earlier filings
[1] = target: mouse β3-adrenergic receptor (Mus musculus, UniProt P25962); conditions: background statement, earlier filing / Nahmias et al.
Sequence of mouse β3-adrenergic receptor (P25962 1-388 limits assumed): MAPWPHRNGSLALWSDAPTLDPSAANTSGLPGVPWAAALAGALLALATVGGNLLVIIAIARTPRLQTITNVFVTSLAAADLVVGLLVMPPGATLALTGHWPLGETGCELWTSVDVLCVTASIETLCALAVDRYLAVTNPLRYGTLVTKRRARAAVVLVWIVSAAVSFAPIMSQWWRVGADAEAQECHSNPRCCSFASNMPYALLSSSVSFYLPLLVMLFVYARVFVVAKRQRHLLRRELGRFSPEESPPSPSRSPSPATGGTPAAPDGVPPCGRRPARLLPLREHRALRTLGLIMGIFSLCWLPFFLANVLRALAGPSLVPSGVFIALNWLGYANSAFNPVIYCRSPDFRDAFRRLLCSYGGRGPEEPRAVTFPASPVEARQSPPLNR

Sequence of β3-adrenergic receptor (P13945 1-402 limits assumed): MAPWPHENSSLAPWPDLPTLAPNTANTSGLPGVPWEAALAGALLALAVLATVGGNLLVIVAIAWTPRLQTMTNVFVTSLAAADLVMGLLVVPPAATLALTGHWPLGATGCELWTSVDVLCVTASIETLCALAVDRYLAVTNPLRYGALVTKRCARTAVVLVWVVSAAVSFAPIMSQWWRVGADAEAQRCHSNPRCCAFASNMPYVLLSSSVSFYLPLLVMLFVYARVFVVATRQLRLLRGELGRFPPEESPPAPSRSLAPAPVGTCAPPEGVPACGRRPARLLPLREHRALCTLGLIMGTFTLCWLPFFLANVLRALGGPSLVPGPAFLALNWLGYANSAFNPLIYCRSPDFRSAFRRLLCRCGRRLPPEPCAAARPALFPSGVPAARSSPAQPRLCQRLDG

SMILES | activating adenylate cyclase in the presence of an agonist (β3-adrenergic receptor) | activation of mouse β3-adrenergic receptor [1]
C[C@H](Cc1ccc(C(=O)O)cc1)NC[C@H](O)c1ccccc1 [BRL 28410] | activating adenylate cyclase | 
CC(C)(C)NCC(O)COc1cccc2[nH]c(=O)[nH]c12 (centres unmarked) [CGP 12177A] |  | can be activated
C=CCOc1ccccc1OCC(O)CNC(C)C (centres unmarked) [oxprenolol] |  | can be activated
CC(C)NCC(O)COc1cccc2[nH]ccc12 (centres unmarked) [pindolol] |  | can be activated
CC(C)(C)NCC(O)c1ccc(O)c(CO)c1 (centres unmarked) [salbutamol] | activating adenylate cyclase | 
